Measurements as given in patent US20250228239A1, “MOLECULES HAVING PESTICIDAL UTILITY, AND INTERMEDIATES, COMPOSITIONS, AND PROCESSES, RELATED THERETO” (priority 2024, published 2025).

Tests used:
[1] = tested on: Beet Armyworm (Spodoptera exigua, LAPHEG); assay: Bioassays on Beet Armyworm (BAW), 128-well diet tray assay; format: in vivo; details: Spodoptera exigua; Beet Armyworm; rating class; read-out: BAW
Method in brief: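 One to five second-instar larvae per well on artificial diet surface-treated with 50 μg/cm^2 test molecule (applied in 90:10 acetone-water, dried), eight wells per compound. Trays held vented at 25° C., 14:10 light-dark for five to seven days; percent mortality averaged over the eight wells.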

[2] = tested on: Cabbage Looper (Trichoplusia ni, TRIPNI); assay: Bioassays on Cabbage Looper (CL), 128-well diet tray assay; format: in vivo; details: Trichoplusia ni; Cabbage Looper; rating class; read-out: CL
Method in brief: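 Percent mortality, averaged across eight replicate wells, after second-instar larvae (1–5 per well) fed for five to seven days on diet dosed at 50 μg/cm^2. Compound was applied in acetone-water 90:10 and dried; trays kept vented at 25° C under 14:10 photoperiod.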

SMILES | pest or weed control at 50 µg/cm2 [1] [%] | pest or weed control at 50 µg/cm2 [2] [%]
O=C(Nc1c(F)ccc(NC(=O)C(F)(F)F)c1F)c1cc(NC(=O)[C@H]2[C@H](c3ccc(Cl)c(Cl)c3)C2(Cl)Cl)ccc1Cl [F1537, 2-Chloro-5-((1R,3R)-2,2-dichloro-3-(3,4-dichlorophenyl)cyclopropane-1-carboxamido)-N-(2,6-difluoro-3-(2,2,2-trifluoroacetamido)phenyl)benzamide] | 50 to 100 | 50 to 100
O=C(Nc1c(F)ccc(NC(=O)C(F)(F)F)c1F)c1cc(NC(=O)[C@H]2[C@H](c3ccc(F)c(C(F)(F)F)c3)C2(Cl)Cl)ccc1Cl [F1538, 2-Chloro-5-((1R,3R)-2,2-dichloro-3-(4-fluoro-3-(trifluoromethyl)phenyl)cyclopropane-1-carboxamido)-N-(2,6-difluoro-3-(2,2,2-trifluoroacetamido)phenyl)benzamide] | 50 to 100 | 50 to 100
CC(=O)Nc1cc(NC(=O)c2cc(NC(=O)[C@H]3[C@H](c4ccc(F)c(C(F)(F)F)c4)C3(Cl)Cl)ccc2Cl)c(F)cc1F [F1539, N-(5-Acetamido-2,4-difluorophenyl)-2-chloro-5-((1R,3R)-2,2-dichloro-3-(4-fluoro-3-(trifluoromethyl)phenyl)cyclopropane-1-carboxamido)benzamide] | 50 to 100 | 50 to 100
O=C(Nc1cc(NC(=O)C(F)F)c(F)cc1F)c1cc(NC(=O)[C@H]2[C@H](c3ccc(F)c(C(F)(F)F)c3)C2(Cl)Cl)ccc1Cl [F1540, 2-Chloro-5-((1R,3R)-2,2-dichloro-3-(4-fluoro-3-(trifluoromethyl)phenyl)cyclopropane-1-carboxamido)-N-(5-(2,2-difluoroacetamido)-2,4-difluorophenyl)benzamide] | 50 to 100 | 50 to 100
O=C(Nc1cc(NC(=O)C(F)(F)F)c(F)cc1F)c1cc(NC(=O)[C@H]2[C@H](c3ccc(F)c(C(F)(F)F)c3)C2(Cl)Cl)ccc1Cl [F1541, 2-Chloro-5-((1R,3R)-2,2-dichloro-3-(4-fluoro-3-(trifluoromethyl)phenyl)cyclopropane-1-carboxamido)-N-(2,4-difluoro-5-(2,2,2-trifluoroacetamido)phenyl)benzamide] | 50 to 100 | 50 to 100
CC(=O)Nc1c(F)ccc(NC(=O)c2cc(NC(=O)[C@H]3[C@H](c4ccc(Cl)c(Cl)c4)C3(Cl)Cl)cc(C)c2Cl)c1F [F1543, N-(3-Acetamido-2,4-difluorophenyl)-2-chloro-5-((1R,3R)-2,2-dichloro-3-(3,4-dichlorophenyl)cyclopropane-1-carboxamido)-3-methylbenzamide] | 50 to 100 | 50 to 100
CC(=O)Nc1c(F)ccc(NC(=O)c2cc(NC(=O)[C@H]3[C@H](c4cc(Cl)c(Cl)c(Cl)c4)C3(Cl)Cl)cc(C)c2Cl)c1F [F1544, N-(3-Acetamido-2,4-difluorophenyl)-2-chloro-5-((1R,3R)-2,2-dichloro-3-(3,4,5-trichlorophenyl)cyclopropane-1-carboxamido)-3-methylbenzamide] | 50 to 100 | 50 to 100
CC(=O)Nc1c(F)ccc(NC(=O)c2cc(NC(=O)[C@H]3[C@H](c4ccc(F)c(C(F)(F)F)c4)C3(Cl)Cl)cc(C)c2Cl)c1F [F1545, N-(3-acetamido-2,4-difluorophenyl)-2-chloro-5-((1R,3R)-2,2-dichloro-3-(4-fluoro-3-(trifluoromethyl)phenyl)cyclopropane-1-carboxamido)-3-methylbenzamide] | 50 to 100 | 50 to 100
CC(=O)Nc1cc(NC(=O)c2cc(NC(=O)[C@H]3[C@H](c4ccc(Cl)c(Cl)c4)C3(Cl)Cl)cc(C)c2Cl)c(F)cc1F [F1546, N-(5-Acetamido-2,4-difluorophenyl)-2-chloro-5-((1R,3R)-2,2-dichloro-3-(3,4-dichlorophenyl)cyclopropane-1-carboxamido)-3-methylbenzamide] | 50 to 100 | 50 to 100
CC(=O)Nc1cc(NC(=O)c2cc(NC(=O)[C@H]3[C@H](c4cc(Cl)c(Cl)c(Cl)c4)C3(Cl)Cl)cc(C)c2Cl)c(F)cc1F [F1547] | 50 to 100 | 50 to 100
CC(=O)Nc1cc(NC(=O)c2cc(NC(=O)[C@H]3[C@H](c4ccc(F)c(C(F)(F)F)c4)C3(Cl)Cl)cc(C)c2Cl)c(F)cc1F [F1548, N-(5-Acetamido-2,4-difluorophenyl)-2-chloro-5-((1R,3R)-2,2-dichloro-3-(4-fluoro-3-(trifluoromethyl)phenyl)cyclopropane-1-carboxamido)-3-methylbenzamide] | 50 to 100 | 50 to 100
CNc1c(F)ccc(NC(=O)c2cc(NC(=O)[C@H]3[C@H](c4ccc(Cl)c(Cl)c4)C3(Cl)Cl)ccc2Cl)c1F [F1550, 2-Chloro-5-((1R,3R)-2,2-dichloro-3-(3,4-dichlorophenyl)cyclopropane-1-carboxamido)-N-(2,4-difluoro-3-(methylamino)phenyl)benzamide] | 50 to 100 | 50 to 100
O=C(Nc1c(F)ccc(NC(=O)C(F)(F)C(F)F)c1F)c1cc(NC(=O)[C@H]2[C@H](c3ccc(F)c(C(F)(F)F)c3)C2(Cl)Cl)ccc1Cl [F1564, 2-Chloro-5-((1R,3R)-2,2-dichloro-3-(4-fluoro-3-(trifluoromethyl)phenyl)cyclopropane-1-carboxamido)-N-(2,6-difluoro-3-(2,2,3,3-tetrafluoropropanamido)phenyl)benzamide] | 50 to 100 | 50 to 100
O=C(Nc1cc(NC(=O)C(F)(F)C(F)F)c(F)cc1F)c1cc(NC(=O)[C@H]2[C@H](c3ccc(Cl)c(Cl)c3)C2(Cl)Cl)ccc1Cl [F1565, 2-Chloro-5-((1R,3R)-2,2-dichloro-3-(3,4-dichlorophenyl)cyclopropane-1-carboxamido)-N-(2,4-difluoro-5-(2,2,3,3-tetrafluoropropanamido)phenyl)benzamide] | 50 to 100 | 50 to 100
Nc1cc(NC(=O)c2cc(NC(=O)[C@H]3[C@H](c4ccc(F)c(C(F)(F)F)c4)C3(Cl)Cl)ccc2Cl)c(F)cc1F [F1566, N-(5-Amino-2,4-difluorophenyl)-2-chloro-5-((1R,3R)-2,2-dichloro-3-(4-fluoro-3-(trifluoromethyl)phenyl)cyclopropane-1-carboxamido)benzamide] | 50 to 100 | 50 to 100
O=C(Nc1ccc(F)c(NC(=O)C(F)(F)C(F)F)c1F)c1cc(NC(=O)[C@H]2[C@H](c3cc(Cl)c(Cl)c(Cl)c3)C2(Cl)Cl)ccc1Cl [F1567, 2-Chloro-5-((1R,3R)-2,2-dichloro-3-(3,4,5-trichlorophenyl)cyclopropane-1-carboxamido)-N-(2,4-difluoro-3-(2,2,3,3-tetrafluoropropanamido)phenyl)benzamide] | 50 to 100 | 50 to 100
O=C(Nc1cc(NC(=O)C(F)(F)C(F)F)c(F)cc1F)c1cc(NC(=O)[C@H]2[C@H](c3cc(Cl)c(Cl)c(Cl)c3)C2(Cl)Cl)ccc1Cl [F1568, 2-Chloro-5-((1R,3R)-2,2-dichloro-3-(3,4,5-trichlorophenyl)cyclopropane-1-carboxamido)-N-(2,4-difluoro-5-(2,2,3,3-tetrafluoropropanamido)phenyl)benzamide] | 50 to 100 | 50 to 100
O=C(Nc1cc(NC(=O)C(F)(F)C(F)F)c(F)cc1F)c1cc(NC(=O)[C@H]2[C@H](c3ccc(F)c(C(F)(F)F)c3)C2(Cl)Cl)ccc1Cl [F1569, 2-Chloro-5-((1R,3R)-2,2-dichloro-3-(4-fluoro-3-(trifluoromethyl)phenyl)cyclopropane-1-carboxamido)-N-(2,4-difluoro-5-(2,2,3,3-tetrafluoropropanamido)phenyl)benzamide] | 50 to 100 | 50 to 100
CC(=O)Nc1c(F)ccc(NC(=O)c2cc(NC(=O)[C@H]3[C@H](c4ccc(F)c(C(F)(F)F)c4)C3(Cl)Cl)cc(F)c2F)c1F [F1570, N-(3-Acetamido-2,4-difluorophenyl)-5-((1R,3R)-2,2-dichloro-3-(4-fluoro-3-(trifluoromethyl)phenyl)cyclopropane-1-carboxamido)-2,3-difluorobenzamide] | 50 to 100 | 50 to 100
O=C(Nc1ccc(F)c(NC(=O)C(F)F)c1F)c1cc(NC(=O)[C@H]2[C@H](c3ccc(F)c(C(F)(F)F)c3)C2(Cl)Cl)cc(F)c1F [F1571, 5-((1R,3R)-2,2-Dichloro-3-(4-fluoro-3-(trifluoromethyl)phenyl)cyclopropane-1-carboxamido)-N-(3-(2,2-difluoroacetamido)-2,4-difluorophenyl)-2,3-difluorobenzamide] | 50 to 100 | 50 to 100
O=C(Nc1ccc(F)c(NC(=O)C(F)(F)F)c1F)c1cc(NC(=O)[C@H]2[C@H](c3ccc(F)c(C(F)(F)F)c3)C2(Cl)Cl)cc(F)c1F [F1572, 5-((1R,3R)-2,2-Dichloro-3-(4-fluoro-3-(trifluoromethyl)phenyl)cyclopropane-1-carboxamido)-N-(2,4-difluoro-3-(2,2,2-trifluoroacetamido)phenyl)-2,3-difluorobenzamide] | 50 to 100 | 50 to 100
O=C(Nc1c(F)ccc(NC(=O)C(F)F)c1F)c1cc(NC(=O)[C@H]2[C@H](c3ccc(F)c(C(F)(F)F)c3)C2(Cl)Cl)cc(F)c1F [F1573, 5-((1R,3R)-2,2-Dichloro-3-(4-fluoro-3-(trifluoromethyl)phenyl)cyclopropane-1-carboxamido)-N-(3-(2,2-difluoroacetamido)-2,6-difluorophenyl)-2,3-difluorobenzamide] | 50 to 100 | 50 to 100
